Laboratory results reported in patent US6809119B2, “Branched chain amino acid-dependent aminotransferase inhibitors and their use in the treatment of neurodegenerative diseases” (Warner-Lambert Company LLC, priority 2001, dated 2004).

Tests used:
[1] = biological target: T1, human Branched Chain Amino Acid Aminotransferase cytosolic form (hBCATc) (Homo sapiens, UniProt P54687); test: In vitro coupled enzyme assay, human BCAT cytosolic form; type: biochemical; conditions: inhibition of recombinant human BCATc; coupled glutamate dehydrogenase/NADH assay, 37° C., pH 7.8; read-out: rhBCATc
T1 construct: inferred from purification on a Ni-charged chelating column with imidazole elution; made in house; host or cells: E. coli BL21(DE3)
T1 sequence (P54687 1-386): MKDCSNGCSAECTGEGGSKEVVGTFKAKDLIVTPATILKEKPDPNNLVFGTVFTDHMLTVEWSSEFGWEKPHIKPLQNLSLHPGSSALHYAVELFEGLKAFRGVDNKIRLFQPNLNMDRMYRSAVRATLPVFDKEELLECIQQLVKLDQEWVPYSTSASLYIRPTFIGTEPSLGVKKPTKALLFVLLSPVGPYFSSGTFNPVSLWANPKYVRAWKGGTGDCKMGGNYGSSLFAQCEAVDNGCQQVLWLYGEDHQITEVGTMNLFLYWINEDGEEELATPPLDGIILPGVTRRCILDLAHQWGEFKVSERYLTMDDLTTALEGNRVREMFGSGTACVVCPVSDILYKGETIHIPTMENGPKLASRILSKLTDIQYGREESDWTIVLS
Method: (§1) In vitro enzyme assay: human Branched Chain Amino Acid Aminotransferase cytosolic form (hBCATc) and mitochondrial form (hBCATm) as well as rat BCAT cytosolic form were assayed at 37° C. in 25 mM phosphate buffer pH 7.8. In addition, 2 mM DTT and 12.5 mM EDTA were added to the assay mixture. A coupling enzyme assay was used to monitor the production of glutamate. The formation of NADH from NAD+at […] was followed on a 96-well plate Molecular Devices plate reader. The following components were used in this coupled assay: 4 mM ADP, 1 mM NAD+, 750 μM L-Leucine, 500 μM a-ketoglutarate, 10 μM pyridoxal phosphate, 1 unit glutamate dehydrogenase, and 1.25 μg of the appropriate BCAT enzyme. Inhibitions by compounds were assayed by adding various concentrations to this coupled assay procedure as a DMSO stock up to a 5% v/v DMSO/buffer ratio.
(§2) Enzyme Preparation: humanBCATc and ratBCATc were expressed in BL21(DE3) cells. A growing culture of cells was induced with 1 mM IPTG at room temperature overnight. These cells were harvested by centrifugation at 10,000 g for 20 minutes. The supernatant was discarded, and the cells were stored at −80° C. until needed. The protein was purified by the following method. The cell paste was resuspended in extraction buffer (0.1 M phosphate, pH 8.0, with 0.01 M Tris-HCL and 5 mM TCEP and then lysed on a French Press at 1000 psi. The lysate was centrifuged at 10,000 g for 15 minutes, and the pellet was discarded. The supernatant was loaded onto a Hitrap Chelating column previously charged with 0.1 M NiSO4 and washed with 3 to 4 column volumes of extraction buffer. The column was then washed with 0.01 Tris, pH 7.5, 10% glycerol, 150 mM NaCl, 5 mM TCEP for two column volumes. The column was then further washed with two column volumes of 0.1 M phosphate, pH 6.0, 0.01 M Tris, 10% glycerol, and 750 mM NaCl. Finally, the column was washed with two column volumes of the same buffer plus 50 mM imidazole. The BCAT enzyme was then eluted with the same buffer but with 350 mM imidazole. The eluant was then dialyzed overnight against 10 mM phosphate buffer pH 8.0, 10% glycerol, and 5 mM TCEP. The dialyzed protein was then loaded onto a Q-sepharose column and eluted using a salt gradient. Active fractions were collected and further purified on a Superose-12 column to yield pure BCAT protein.

[2] = biological target: T2, rat BCAT cytosolic form (rrBCATc) (Rattus norvegicus, UniProt P54690); test: In vitro coupled enzyme assay, rat BCAT cytosolic form; type: biochemical; conditions: inhibition of recombinant rat BCATc; coupled glutamate dehydrogenase/NADH assay, 37° C., pH 7.8
T2 construct: inferred from purification on a Ni-charged chelating column with imidazole elution; made in house; host or cells: E. coli BL21(DE3)
T2 sequence (P54690 1-411): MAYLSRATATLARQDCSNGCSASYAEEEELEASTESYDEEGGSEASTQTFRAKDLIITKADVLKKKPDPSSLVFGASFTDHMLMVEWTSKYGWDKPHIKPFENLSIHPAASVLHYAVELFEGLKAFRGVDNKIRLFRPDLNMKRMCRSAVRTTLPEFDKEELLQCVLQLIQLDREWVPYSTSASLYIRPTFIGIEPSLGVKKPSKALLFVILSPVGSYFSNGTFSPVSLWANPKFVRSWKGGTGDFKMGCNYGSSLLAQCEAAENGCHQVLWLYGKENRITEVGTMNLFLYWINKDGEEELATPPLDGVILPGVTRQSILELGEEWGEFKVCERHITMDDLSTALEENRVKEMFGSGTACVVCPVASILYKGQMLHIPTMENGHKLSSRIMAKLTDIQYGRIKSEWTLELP
Method: as §1, §2

Structure (SMILES) | melting point [°C] | IC50 [1] [µM] | IC50 [2] [µM]
Cc1cccc(S(=O)(=O)Nc2ccc(C(=O)NNS(=O)(=O)c3ccccc3)cc2)c1 (hydrate or solvate) [Example 17, Benzoic acid, 4-[[(3-methylphenyl)sulfonyl]amino]-, 2-(phenylsulfonyl)hydrazide] | 219 to 219.7 | – | –
O=C(NNS(=O)(=O)c1ccccc1)c1ccc([N+](=O)[O-])cc1 [Example 1, Benzoic acid, 4-nitro-2-(phenylsulfonyl)hydrazide] | 193 to 195 | 40 | –
Nc1ccc(C(=O)NNS(=O)(=O)c2ccccc2)cc1 [Example 2, Benzoic acid, 4-amino-2-(phenylsulfonyl)hydrazide] | 171 to 173 | 60 | 28.1
O=C(NNS(=O)(=O)c1ccccc1)c1ccc(NS(=O)(=O)c2c(Cl)cc(Cl)cc2Cl)cc1 [Example 3, Benzoic acid, 4-[[(2,4,6trichlorophenyl)sulfonyl]amino]-, 2-(phenylsulfonyl)hydrazide] | 195.7 to 196.2 | 0.7 | –
O=C(NNS(=O)(=O)c1ccccc1)c1ccc(NS(=O)(=O)c2ccc(C(F)(F)F)cc2)cc1 [Example 4, Benzoic acid, 4-[[[4-(trifluoromethyl)phenyl]sulfonyl]amino]-, 2-(phenylsulfonyl)hydrazide] | 98.5 to 99.4 | 6 | –
O=C(NNS(=O)(=O)c1ccccc1)c1ccc(NS(=O)(=O)c2ccc(Oc3ccccc3)cc2)cc1 [Example 6, Benzoic acid, 4-[[[(4-phenoxy)benzene]sulfonyl]amino]-, 2-(phenylsulfonyl)hydrazide] | 94.1 to 94.9 | 3 | –
Cc1cccc(Cl)c1S(=O)(=O)Nc1ccc(C(=O)NNS(=O)(=O)c2ccccc2)cc1 [Example 7, Benzoic acid, 4-[[(2-chloro-6-methylphenyl)sulfonyl]amino]-, 2-(phenylsulfonyl)hydrazide] | 214.4 to 215.6 | – | –
CS(=O)(=O)Nc1ccc(C(=O)NNS(=O)(=O)c2ccccc2)cc1 [Example 8, Benzoic acid, 4-[(methylsulfonyl)amino]-, 2-(phenylsulfonyl)hydrazide] | 185.6 to 186.5 | 7 | –
Cc1ccc(S(=O)(=O)Nc2ccc(C(=O)NNS(=O)(=O)c3ccccc3)cc2)cc1 [Example 9, Benzoic acid, 4-[[(4-methylphenyl)sulfonyl]amino]-, 2-(phenylsulfonyl)hydrazide] | 191.6 to 192.4 | 3.8 | –
CCc1ccc(S(=O)(=O)Nc2ccc(C(=O)NNS(=O)(=O)c3ccccc3)cc2)cc1 [Example 10, Benzoic acid, 4-[[(4-ethylphenyl)sulfonyl]amino]-, 2-(phenylsulfonyl)hydrazide] | 142.3 to 142.9 | 13 | –
CCCc1ccc(S(=O)(=O)Nc2ccc(C(=O)NNS(=O)(=O)c3ccccc3)cc2)cc1 [Example 11, Benzoic acid, 4-[[(4-n-propylphenyl)sulfonyl]amino]-, 2-(phenylsulfonyl)hydrazide] | – | 7.5 | –
CCCCc1ccc(S(=O)(=O)Nc2ccc(C(=O)NNS(=O)(=O)c3ccccc3)cc2)cc1 [Example 12, Benzoic acid, 4-[[(4-n-butylphenyl)sulfonyl]amino]-, 2-(phenylsulfonyl)hydrazide] | 76 to 77.1 | 4.6 | –
O=C(NNS(=O)(=O)c1ccccc1)c1ccc(NS(=O)(=O)c2ccc(F)cc2)cc1 [Example 14, Benzoic acid, 4-[[(4-fluorophenyl)sulfonyl]amino]-, 2-(phenylsulfonyl)hydrazide] | 183.5 to 185 | 4.8 | –
O=C(NNS(=O)(=O)c1ccccc1)c1ccc(NS(=O)(=O)c2ccccc2)cc1 [Example 15] | 140.8 to 144.5 | 4.9 | –
Cc1cccc(S(=O)(=O)Nc2ccc(C(=O)NNS(=O)(=O)c3ccccc3)cc2)c1 [Example 17, Benzoic acid, 4-[[(3-methylphenyl)sulfonyl]amino]-, 2-(phenylsulfonyl)hydrazide] | – | 2.3 | –
Cc1cccc(S(=O)(=O)NNC(=O)c2ccc(Oc3ccccc3)cc2)c1 [Example 18, 4-Phenoxybenzoic acid, 2-[(3-methyl)phenylsulfonyl]hydrazide] | – | 9.5 | 1.2
O=C(NNS(=O)(=O)c1cccc(Br)c1)c1ccc(Oc2ccccc2)cc1 [Example 19, 4-Phenoxybenzoic acid, 2-[3-bromophenylsulfonyl]hydrazide] | – | 28 | 2.8
O=C(NNS(=O)(=O)c1ccccc1Cl)c1ccc(Oc2ccccc2)cc1 [Example 20, 4-Phenoxybenzoic acid, 2-[2-chlorophenylsulfonyl]hydrazide] | – | 35 | 5.9
O=C(NNS(=O)(=O)c1ccccc1OC(F)(F)F)c1ccc(Oc2ccccc2)cc1 [Example 21, 4-Phenoxybenzoic acid, 2-[2-(trifluoromethoxy)phenylsulfonyl]hydrazide] | – | 28 | 2.9
Cc1ccc(S(=O)(=O)NNC(=O)c2ccc(Oc3ccccc3)cc2)cc1[N+](=O)[O-] [Example 22, 4-Phenoxybenzoic acid, 2-[(4-methyl-3-nitro)phenylsulfonyl]hydrazide] | – | 110 | –
O=C(NNS(=O)(=O)c1ccccc1C(F)(F)F)c1ccc(Oc2ccccc2)cc1 [Example 23, 4-Phenoxybenzoic acid, 2-[2-trifluorophenylsulfonyl]hydrazide] | – | 17 | 0.43
O=C(NNS(=O)(=O)c1ccccc1)c1cccc(Oc2ccccc2)c1 [Example 26, 3-Phenoxybenzoic acid, 2-(phenylsulfonyl)hydrazide] | – | 34 | 2.2
O=C(NNS(=O)(=O)c1ccccc1)c1ccccc1Oc1ccccc1 [Example 27, 2-Phenoxybenzoic acid, 2-(phenylsulfonyl)hydrazide] | 149 to 150 | 50 | –
O=C(NNS(=O)(=O)c1ccccc1)c1ccc(Oc2ccccc2)cc1 [Example 28, 4-Phenoxybenzoic acid, 2-(phenylsulfonyl)hydrazide] | – | 37 | 1.5
COc1ccc(S(=O)(=O)Nc2ccc(C(=O)NNS(=O)(=O)c3ccccc3)cc2)cc1 [Example 30, Benzoic acid, 4-[[(4-methoxyphenyl)sulfonyl]amino]-, 2-(phenylsulfonyl)hydrazide] | 164.3 to 164.9 | 2.8 | –
O=C(NNS(=O)(=O)c1ccccc1)c1ccc(I)cc1 [Example 31, 4-Iodo-benzoic acid, 2-(phenylsulfonyl)hydrazide] | 193 to 195 | – | –
O=C(NNS(=O)(=O)c1ccccc1)c1ccc(C#CCC2CCCCC2)cc1 [Example 34, 4-(3-Cyclohexyl-1-propynyl)-benzoic acid, 2-(phenylsulfonyl)hydrazide] | 180 to 182 | 32.3 | –
